Measurements: US20230233583A1, “USE OF PHYTOCANNABINOIDS FOR TREATING MULTIPLE MYELOMA” (priority 2020, published 2023)

Tests used:
[1] = test system: H2AX levels in MM cell lines; test: Western blot analysis for H2AX; format: cell-based, human; details: 48 hours, daily; CBG, CBN, CBDV 25 μM, CBC 75 μM
Description: 4×10^4 cells were plated in 6 well plates and treated for 48 hours with daily administration of CBG (25 μM; FIG. 17), CBC (75 μM; FIG. 18), CBN (25 μM; FIG. 19) or CBDV (25 μM; FIG. 20). Densitometric analysis was carried out by evaluating two independent experiments by a Chemidoc using the Quantity One software (BioRad, Hercules, USA). H2AX densitometry values were normalized to GAPDH used as loading control and normalized with non-treated cells. Densitometric values shown are the mean±SE of two separate experiments.
Western blot analysis for H2AX: 4×10^4 cells were plated in 6-well plates and treated daily for 48 hours with CBG, CBN or CBDV (25 μM) or CBC (75 μM). Ten micrograms of the myeloma cell line lysates were then separated on a SDS-polyacrylamide gel, transferred onto Hybond-C extra membranes (GE Healthcare), blocked with 5% of Bovine Serum Albumin (BSA) in phosphate buffered saline (PBS)-Tween 20, immunoblotted with rabbit anti-phospho-histone H2AX (Ser139) (1:1000, #9718, Cell Signaling) and rabbit anti-glyceraldehyde-3-phosphate dehydrogenase (GAPDH, 1:3000, #2118, OriGene, Rockville, Md., USA) antibodies incubated overnight and then incubated with their respective HRP-conjugated anti-rabbit (1:2000, Cell Signaling) antibodies for 1 hour. The detection was performed using the LiteAblot™ PLUS or the LiteAblot™ TURBO (EuroClone, Milano, Italy) kits and densitometric analysis was carried out by evaluating three independent experiments by a Chemidoc using the Quantity One software (BioRad, Hercules, USA). H2AX densitometry values were normalized to GAPDH used as loading control and normalized with non-treated cells. Densitometric values shown are the mean±SE of three separate experiments.
(§1) Phytocannabinoids induce necrotic cell death in MM cell lines: To evaluate the cytotoxic mechanism induced by the phytocannabinoids, MM cell lines were treated daily with a cytotoxic dose for each phytocannabinoid (CBG: 25 μM; CBC 75 μM; CBN 25 μM; CBDV 25 μM) for 48 hours and then Annexin-V/PI cell positivity was evaluated by FACS analysis. The results evidenced that all of the phytocannabinoids induced necrotic cell death but had different efficacies (FIGS. 5-16). To confirm the necrotic cell death mechanism, MM cell lines were treated as above and DNA damage was evaluated by H2AX (a marker to examine the DNA damage produced and the subsequent repair of the DNA lesion) Western blot analysis and Comet assay (permits the analysis of DNA damage in single cell preparations). The result confirmed the DNA damage induced by the phytocannabinoid analysed. In particular, an increase of H2AX levels were observed by Western blot (FIGS. 17-20) and DNA damage by Comet assay that evidenced structures resembling comets in the treated cell lines (FIGS. 21-24).

U266 = test: MTT cytotoxicity assay in U266 MM cell line; details: for IC50: Homo sapiens, U-266, 72 h, read-out: IC50 (μM) ± S.D.; for % VIABILITY ± S.D.: daily, 72 hours, vs vehicle
Description: (§2) MTT cytotoxicity assay: MM cell lines (4×10^4 cells/ml) were seeded in 96-well plates, in a final volume of 100 μl/well. After 24 hours, CBG, CBC, CBN, CBDV alone and in combination or vehicle were added at different concentrations, for 72 hours. At least six replicates were used for each treatment. At the indicated time point, cell viability was assessed by adding 0.8 mg/ml of 3-[4,5-dimethylthiazol-2-yl]-2,5 diphenyl tetrazolium bromide (MTT) (Sigma-Aldrich) to the media. After 3 hours, the plates were centrifuged, the supernatant was removed, and the pellet was solubilized with 100 μl/well dimethyl sulfoxide (DMSO). The absorbance of the samples against a background control (medium alone) was measured at 570 nm using an ELISA reader microliter plate (BioTek™ Instruments, Winooski, Vt., USA).
(§3) Cells were treated with different doses of CBG, CBC, CBN and CBDV (up to 100 μM) and percentage of cell viability was evaluated by the MTT assay.
(§4) The cannabinoids were administered daily for 72 hours, as in previous experiments at the desired doses. Each combination was evaluated in six wells and in two separate experiments. MTT assay was used to analyze the cell cytotoxicity. The values in the tables are represented as % of cell viability compared to vehicle-treated cells.

RPMI = test: MTT cytotoxicity assay in RPMI MM cell line; details: for IC50: Homo sapiens, 72 h, read-out: IC50 (μM) ± S.D.; for % VIABILITY ± S.D.: RPMI, daily, 72 hours, vs vehicle
Description: as §2, §3, §4

[2] = test system: MM cell lines SKO, U266 and RPMI; test: Alkaline Comet assay; format: cell-based, human; details: 48 hrs, CBG, CBN, CBDV 25 μM, CBC 75 μM
Description: Damage to cellular DNA of the cell lines SKO (upper images in each of FIGS. 21-24), U266 (middle images in each of FIGS. 21-24) and RPMI (lower images in each of FIGS. 21-24) due to exposure to CBG (25 μM; FIG. 21), CBC (75 μM; FIG. 22), CBN (25 μM; FIG. 23) and CBDV (25 μM; FIG. 24) were assessed using the Comet assay.
Alkaline Comet Assay: U266, SKO and RPMI myeloma cell lines were plated in 6-well plates (4×10^4 cell/well) one day before treatment exposure. Semi-confluent cultures were exposed for 48 hrs with 25 μM of CBG, CBN or CBDV or 75 μM of CBC. Controls, treated with vehicle, were included in all series. The Comet assay was performed under alkaline conditions following the ABCAM™ protocol. Briefly, after exposure to the phytocannabinoid, the cells were incubated for 48 hrs in Roswell Park Memorial Institute (RPMI) medium. Then the cells were resuspended in 1×PBS and added to 75 μL of molten (37° C.) 0.5% low-melting-point agarose gel to achieve a cell concentration of 1×10^5 cells/mL. The agarose was pipetted onto the Comet slides. Slides were stored in the dark at 4° C. for 10 min before adding pre-chilled lysis buffer for 45 min. The slides were immersed in freshly prepared alkaline solution (0.25 M NaOH containing […] EDTA, pH 12.6) for 30 min at room temperature. Slides were then removed and washed twice with alkaline solution for 5 min. Gel electrophoresis was performed at 1 V/cm for 30 min (running amperage 3-5 mA with the distance between the two electrodes of 25 cm). The Comet slides were washed with 70% ethanol for 5 min and air-dried for one hour at room temperature. 100 μL of diluted SYBR™ Green solution was placed onto each dried agarose circle. The slides were then read with a fluorescence microscope (LEIKA).
as §1, with “In particular, an increase of H2AX levels were observed by Western blot (FIGS. 17-20) and DNA damage by Comet assay that evidenced structures resembling comets in the treated cell lines (FIGS. 21-24).” left out

[3] = U266, single phytocannabinoid 12.5 μM
[4] = U266, single phytocannabinoid 25 μM
[5] = single phytocannabinoid 12.5 μM

CCCCCc1cc(O)c2c(c1)OC(C)(CCC=C(C)C)C=C2 (centres unmarked) [CBC, 2-methyl-2-(4-methylpent-3-enyl)-7-pentylchromen-5-ol]
H2AX levels by Western blot, in words [1]: increased H2AX levels | IC50 (U266): 78.8 ± 3.4 µM | % VIABILITY ± S.D. (U266; [3]): 106.2 ± 3.5% | % VIABILITY ± S.D. (U266; [4]): 101.2 ± 7.2% | IC50 (RPMI): 49.6 ± 2.1 µM | % VIABILITY ± S.D. (RPMI; [5]): 104.9 ± 3.6% | % VIABILITY ± S.D. (RPMI; single phytocannabinoid 25 μM): 98.3 ± 5.1% | DNA damage by Comet assay, in words [2]: induce DNA damage

C=C(C)[C@@H]1CCC(C)=C[C@H]1c1c(O)cc(CCC)cc1O [CBDV, 2-[(1R,6R)-3-methyl-6-prop-1-en-2-ylcyclohex-2-en-1-yl]-5-propylbenzene-1,3-diol]
H2AX levels by Western blot, in words [1]: increased H2AX levels | IC50 (U266): 26.7 ± 1.3 µM | % VIABILITY ± S.D. (U266; [3]): 88.6 ± 7.2% | % VIABILITY ± S.D. (U266; [4]): 76.2 ± 6.5% | IC50 (RPMI): 21.7 ± 1.1 µM | % VIABILITY ± S.D. (RPMI; [5]): 70.2 ± 5.3% | % VIABILITY ± S.D. (RPMI; single phytocannabinoid 25 μM): 40.2 ± 2.4% | DNA damage by Comet assay, in words [2]: induce DNA damage

CCCCCc1cc(O)c(C/C=C(\C)CCC=C(C)C)c(O)c1 [CBG, 2-[(2E)-3,7-dimethylocta-2,6-dienyl]-5-pentylbenzene-1,3-diol]
H2AX levels by Western blot, in words [1]: increased H2AX levels | IC50 (U266): 35.9 ± 2.2 µM | % VIABILITY ± S.D. (U266; [3]): 97.4 ± 6.5% | % VIABILITY ± S.D. (U266; [4]): 87.7 ± 5.8% | IC50 (RPMI): 31.4 ± 1.9 µM | % VIABILITY ± S.D. (RPMI; [5]): 99.3 ± 8.2% | % VIABILITY ± S.D. (RPMI; single phytocannabinoid 25 μM): 69.1 ± 5.5% | DNA damage by Comet assay, in words [2]: induce DNA damage

CCCCCc1cc(O)c2c(c1)OC(C)(C)c1ccc(C)cc1-2 [CBN, 6,6,9-trimethyl-3-pentylbenzo[c]chromen-1-ol]
H2AX levels by Western blot, in words [1]: increased H2AX levels | IC50 (U266): 26.5 ± 1.8 µM | % VIABILITY ± S.D. (U266; [3]): 89.6 ± 6.6% | % VIABILITY ± S.D. (U266; [4]): 61.1 ± 4.8% | IC50 (RPMI): 23.6 ± 0.9 µM | % VIABILITY ± S.D. (RPMI; [5]): 102.6 ± 7.4% | % VIABILITY ± S.D. (RPMI; single phytocannabinoid 25 μM): 81.1 ± 7.7% | DNA damage by Comet assay, in words [2]: induce DNA damage
